Laboratory results reported in patent US9920017B2, “Heterocyclic compounds as pesticides” (BAYER CROPSCIENCE AKTIENGESELLSCHAFT, priority 2014, dated 2018).
Like-named read-outs stand apart in the source and are kept apart here.

Key:
Boophilus microplus = Boophilus microplus injection test; type: in vivo; details: 20 μg/animal injected into engorged adult female cattle ticks; assessed after 7 days by laying of fertile eggs
Protocol: Boophilus microplus—Injection Test
(§1) Solvent: dimethyl sulphoxide
To produce an appropriate active ingredient formulation, 10 mg of active ingredient are mixed with 0.5 ml of solvent and the concentrate is diluted with solvent to the desired concentration.
1 μl of the active ingredient solution is injected into the abdomen of 5 engorged adult female cattle ticks (Boophilus microplus). The animals are transferred into dishes and kept in a climate-controlled room.
Efficacy is assessed after 7 days by laying of fertile eggs. Eggs which are not visibly fertile are stored in a climate-controlled cabinet for about another 42 days until the larvae hatch. An efficacy of 100% means that none of the ticks has laid any fertile eggs; 0% means that all the eggs are fertile.

Meloidogyne incognita = Meloidogyne incognita test (MELGIN); type: in vivo; details: 20 ppm; lettuce; after 14 days
Protocol: Meloidogyne incognita Test (MELGIN) Solvent: 125.0 parts by weight of acetone To produce a suitable active ingredient formulation, 1 part by weight of active ingredient is mixed with the stated amount of solvent and the concentrate is diluted with water to the desired concentration. Vessels are filled with sand, active ingredient solution, an egg/larvae suspension of the southern root-knot nematode (Meloidogyne incognita) and lettuce seeds. The lettuce seeds germinate and the plants develop. The galls develop on the roots. After 14 days, the nematicidal efficacy in % is determined by the formation of galls. 100% means that no galls were found; 0% means that the number of galls on the treated plants corresponds to the untreated control.

Phaedon cochleariae = Phaedon cochleariae spray test (PHAECO); type: in vivo; details: 500 g/ha; Chinese cabbage leaf discs, larvae; after 7 days
Protocol: Phaedon cochleariae—Spray Test (PHAECO)
Solvent: 78.0 parts by weight of acetone • • 1.5 parts by weight of dimethylformamide
Emulsifier: alkylaryl polyglycol ether
To produce an appropriate active ingredient formulation, 1 part by weight of active ingredient is dissolved using the stated parts by weight of solvent and made up with water containing an emulsifier concentration of 1000 ppm until the desired concentration is attained. To produce further test concentrations, the preparation is diluted with emulsifier-containing water.
Discs of Chinese cabbage leaves (Brassica pekinensis) are sprayed with an active ingredient formulation of the desired concentration and, after drying, populated with larvae of the mustard beetle (Phaedon cochleariae).
After 7 days, the efficacy in % is determined 100% means that all the beetle larvae have been killed; 0% means that no beetle larvae have been killed.

[1] = Determination of log P values by HPLC (reversed-phase C18); type: physicochemical; details: for chromatographic logP: reversed-phase C18 HPLC column
Protocol: 1) Description of Method for Determination of the Log P Values ([…]) The log P values given in the table were determined in accordance with EEC Directive 79/831 Annex V.A8 by HPLC (High Performance Liquid Chromatography) using a reversed-phase column (C 18). Temperature: 55° C. […] Gradient: from 10% eluent A/90% eluent B to 95% eluent A/5% eluent B in 4.25 min. Calibration was effected with unbranched alkan-2-ones (having 3 to 16 carbon atoms) with known log P values (log P values determined on the basis of the retention times by linear interpolation between two successive alkanones). The lambda max values were determined in the maxima of the chromatographic signals using the UV spectra from 200 nm to 400 nm.

Cooperia curticei = Cooperia curticei test; type: in vivo; details: 20 ppm; nematode larvae; after 5 days
Protocol: as §1
To produce an appropriate active ingredient formulation, 10 mg of active ingredient are mixed with 0.5 ml of dimethyl sulphoxide and the concentrate is diluted with “Ringer's solution” to the desired concentration.
Vessels containing the active ingredient formulation of the desired concentration are populated with about 40 nematode larvae (Cooperia curticei).
After 5 days, the kill in % is determined 100% means that all the larvae have been killed; 0% means that none of the larvae have been killed.

[2] = HPLC, reversed-phase C18, 55° C., final compounds table
[3] = HPLC-MS, preparation examples, read-out: log P (neutral)
[4] = pH 3.4, HPLC-MS, preparation examples, read-out: log P
[5] = HPLC, reversed-phase C18, 55° C., final compounds table, read-out: log P neutral

| SMILES | nematicidal efficacy (formation of galls) (Meloidogyne incognita) [%] | log P neutral [1, 2] | efficacy (kill) (Cooperia curticei) [%] | also measured |
| --- | --- | --- | --- | --- |
| O=C(Nc1ncn(-c2c(F)cccc2F)n1)c1ccccc1C(F)F [Compound I-1-18] | 100 | 1.92 | – | efficacy (Boophilus microplus): 80%; efficacy (Phaedon cochleariae): 83% |
| O=C(Nc1ncn(-c2c(F)cccc2I)n1)c1ccccc1I [Compound I-1-85] | 100 | 2.15 | 80 | – |
| O=C(Nc1ncn(-c2c(F)c(F)c(F)c(F)c2F)n1)c1ccccc1C(F)(F)F [Compound I-1-65] | – | 2.49 | – | efficacy (Boophilus microplus): 100% |
| O=C(Nc1ncn(-c2c(F)cccc2Cl)n1)c1ccccc1C(F)(F)F [Compound I-1-33] | 100 | 2.10 | 100 | efficacy (Boophilus microplus): 100%; efficacy (Phaedon cochleariae): 100% |
| O=C(Nc1ncn(-c2c(F)cc(F)cc2F)n1)c1ccccc1I [Compound I-1-63] | 100 | 2.00 | 100 | – |
| O=C(Nc1ncn(-c2c(F)cccc2I)n1)c1ccccc1C(F)(F)F [Compound I-1-83] | 100 | 2.21 | 80 | – |
| O=C(Nc1ncn(-c2ccccc2Br)n1)c1ccccc1C(F)(F)F [Compound I-1-70] | 90 | 2.15 | 80 | – |
| O=C(Nc1ncn(-c2c(F)ccc(F)c2F)n1)c1ccccc1C(F)(F)F [Compound I-1-57] | 100 | 2.10 | 100 | efficacy (Boophilus microplus): 90% |
| O=C(Nc1ncn(-c2c(F)cccc2C(F)(F)F)n1)c1ccccc1Cl [Compound I-1-27] | 90 | 2.06 | – | – |
| Cc1ccccc1C(=O)Nc1ncn(-c2c(F)cccc2F)n1 [Compound I-1-14] | 100 | 1.72 | – | – |
| O=C(Nc1ncn(-c2c(Cl)cccc2Cl)n1)c1ccccc1Br [Compound I-1-45] | 100 | 2.09 | – | – |
| O=C(Nc1ncn(-c2c(F)cccc2F)n1)c1ncccc1C(F)(F)F [Compound I-1-91] | 100 | 1.82 | – | efficacy (Phaedon cochleariae): 100% |
| O=C(Nc1ncn(-c2c(Br)cc(F)cc2Br)n1)c1ccccc1C(F)(F)F [Compound I-1-87] | 90 | 2.46 | – | – |
| O=C(Nc1ncn(-c2c(F)cccc2C(F)(F)F)n1)c1ccccc1I [Compound I-1-28, N-{1-[2-Fluoro-6-(trifluoromethyl)phenyl]-1H-1,2,4-triazol-3-yl}-2-iodobenzamide] | 100 | – | 80 | chromatographic logP [1, 3]: 2.21 |
| O=C(Nc1ncn(-c2ncc(F)cc2F)n1)c1ccccc1C(F)(F)F [Compound I-1-89, N-[1-(3,5-Difluoropyridin-2-yl)-1H-1,2,4-triazol-3-yl]-2-(trifluoromethyl)benzamide] | 100 | – | – | chromatographic logP [1, 4]: 1.76; chromatographic logP [1, 5]: 1.76 |
| O=C(Nc1ncn(-c2ccccc2OC(F)(F)F)n1)c1ccccc1C(F)(F)F [Compound I-1-10] | 100 | 2.51 | – | efficacy (Boophilus microplus): 100% |
| O=C(Nc1ncn(-c2ccccc2Cl)n1)c1ccccc1Br [Compound I-1-4] | 90 | 1.97 | – | – |
| CCc1ccccc1C(=O)Nc1ncn(-c2c(F)cc(F)cc2F)n1 [Compound I-1-64] | 100 | 2.14 | – | – |
| O=C(Nc1ncn(-c2c(F)cccc2Cl)n1)c1ccccc1I [Compound I-1-35] | 100 | 2.04 | – | – |

| SMILES | nematicidal efficacy (formation of galls) (Meloidogyne incognita) [%] | log P neutral [1, 2] | efficacy (kill) (Cooperia curticei) [%] | also measured |
| --- | --- | --- | --- | --- |
| O=C(Nc1ncn(-c2c(F)cc(F)cc2F)n1)c1ccccc1C(F)(F)F [Compound I-1-61] | 100 | 2.05 | 80 | – |
| Cc1cccc(Cl)c1-n1cnc(NC(=O)c2ccccc2C(F)(F)F)n1 [Compound I-1-40] | 90 | 2.26 | – | – |
| O=C(Nc1ncn(-c2c(F)cccc2F)n1)c1ccccc1[N+](=O)[O-] [Compound I-1-22] | 90 | 1.54 | – | – |
| O=C(Nc1ncn(-c2c(F)c(F)c(F)c(F)c2F)n1)c1ccccc1I [Compound I-1-67] | 90 | 2.43 | – | – |
| O=C(Nc1ncn(-c2c(Cl)cccc2Cl)n1)c1ccccc1C(F)(F)F [Compound I-1-44] | 100 | 2.26 | – | efficacy (Boophilus microplus): 90% |
| O=C(Nc1ncn(-c2c(F)cccc2F)n1)c1ccccc1Br [Compound I-1-12] | 90 | 1.80 | – | – |
| O=C(Nc1ncn(-c2c(F)cccc2C(F)(F)F)n1)c1ccccc1C(F)(F)F [Compound I-1-26] | 100 | 2.25 | 90 | – |
| CCc1cccc(Cl)c1-n1cnc(NC(=O)c2ccccc2C(F)(F)F)n1 [Compound I-1-42] | 90 | 2.55 | – | – |
| O=C(Nc1ncn(-c2c(F)cccc2F)n1)c1c(F)cccc1C(F)(F)F [Compound I-1-20] | 100 | 2.04 | 100 | – |
| O=C(Nc1ncn(-c2c(F)ccc(F)c2F)n1)c1ccccc1I [Compound I-1-59] | 100 | 2.03 | 90 | efficacy (Boophilus microplus): 100% |
| O=C(Nc1nnn(-c2ccccc2)n1)c1ccccc1C(F)(F)F [Compound I-2-3, N-(2-Phenyl-2H-tetrazol-5-yl)-2-(trifluoromethyl)benzamide] | – | – | – | efficacy (Phaedon cochleariae): 100%; chromatographic logP [1, 4]: 2.57; chromatographic logP [1, 5]: 2.57 |
| O=C(Nc1ncn(-c2c(F)c(F)cc(F)c2F)n1)c1ccccc1Cl [Compound I-1-92] | 90 | 2.04 | – | – |
| CCc1ccccc1C(=O)Nc1ncn(-c2c(F)cccc2F)n1 [Compound I-1-15] | 100 | – | – | chromatographic logP [1, 3]: 2.05 |
| O=C(Nc1ncn(-c2c(F)cccc2Br)n1)c1ccccc1C(F)(F)F [Compound I-1-30, 2-Trifluoromethyl-N-[1-(2-bromo-6-fluorophenyl)-1H-1,2,4-triazol-3-yl]benzamide] | 100 | – | 80 | efficacy (Boophilus microplus): 100%; chromatographic logP [1, 3]: 2.15 |
| O=C(Nc1ncn(-c2c(F)cc(F)cc2F)n1)c1ccccc1Cl [Compound I-1-62] | 100 | 1.85 | – | – |
| O=C(Nc1ncn(-c2c(F)cccc2Br)n1)c1ccccc1I [Compound I-1-32] | 100 | 2.08 | – | – |
| CCc1ccccc1C(=O)Nc1ncn(-c2c(F)cccc2C(F)(F)F)n1 [Compound I-1-29] | 100 | 2.39 | – | – |
| O=C(Nc1ncn(-c2c(Cl)cccc2Cl)n1)c1ccccc1Cl [Compound I-1-46] | 90 | 2.03 | – | – |
| O=C(Nc1ncn(-c2ccccc2I)n1)c1ccccc1C(F)(F)F [Compound I-1-75] | 90 | 2.20 | – | – |
